Data on twelve compounds can be found in patent US20240342318A1, “CONJUGATES COMPRISING COVALENT BINDERS FOR TARGETING INTRACELLULAR PROTEINS” (RayzeBio, Inc., priority 2021, published 2024).

For assay [1], the target named is T1, EGFR (L858R, T790M) (Homo sapiens, UniProt P00533, L858R/T790M).
T1 construct: The EGFR constructs span amino acids R669 to V1011 of the EGFR protein; T7 phage display fusion (kinase-tagged T7 phage) or DNA tag for qPCR; made in house; host or cells: E. coli (BL21-derived) infected with T7 phage for most assays; remaining kinases in HEK-293
T1 sequence (P00533 669-1011 T790M/L858R): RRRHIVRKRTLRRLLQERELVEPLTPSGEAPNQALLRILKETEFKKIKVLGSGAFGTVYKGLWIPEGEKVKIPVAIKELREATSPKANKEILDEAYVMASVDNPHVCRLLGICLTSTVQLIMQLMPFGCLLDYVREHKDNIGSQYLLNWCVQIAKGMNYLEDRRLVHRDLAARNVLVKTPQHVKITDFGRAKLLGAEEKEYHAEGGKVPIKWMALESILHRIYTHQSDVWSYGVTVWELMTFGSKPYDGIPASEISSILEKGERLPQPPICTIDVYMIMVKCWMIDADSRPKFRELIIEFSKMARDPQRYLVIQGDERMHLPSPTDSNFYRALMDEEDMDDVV
In words: In vitro kinase binding assay (phage/DNA-tagged kinase, affinity beads, qPCR), mutant EGFR. The conditions noted are these: for Binding Affinity ratio of WT/DM: ratio of Kd EGFR (WT) to Kd EGFR (L858R, T790M). On the procedure: (§1) For most assays, kinase-tagged T7 phage strains were prepared in an E. coli host derived from the BL21 strain. For the EGFR assays, wild-type EGFR, or mutant EGFR (T790M, L858R) were utilized. The EGFR constructs span amino acids R669 to V1011 of the EGFR protein. E. coli were grown to log-phase and infected with T7 phage and incubated with shaking at 32° C. until lysis. The lysates were centrifuged and filtered to remove cell debris. The remaining kinases were produced in HEK-293 cells and subsequently tagged with DNA for qPCR detection. Streptavidin-coated magnetic beads were treated with biotinylated small molecule ligands for 30 minutes at room temperature to generate affinity resins for kinase assays. The liganded beads were blocked with excess biotin and washed with blocking buffer (SeaBlock (Pierce), 1% BSA, 0.05% Tween 20, 1 mM DTT) to remove unbound ligand and to reduce non-specific binding. Binding reactions were assembled by combining kinases, liganded affinity beads, and test compounds in 1× binding buffer (20% SeaBlock, 0.17×PBS, 0.05% Tween 20, 6 mM DTT). Test compounds were prepared as 111× stocks in 100% DMSO. Kds were determined using an 11-point 3-fold compound dilution series with three DMSO control points. All compounds for Kd measurements are distributed by acoustic transfer (non-contact dispensing) in 100% DMSO. The compounds were then diluted directly into the assays such that the final concentration of DMSO was 0.9%. All reactions performed in polypropylene 384-well plate. Each was a final volume of 0.02 ml. The assay plates were incubated at room temperature with shaking for 1 hour and the affinity beads were washed with wash buffer (lx PBS, 0.05% Tween 20). The beads were then re-suspended in elution buffer (lx PBS, 0.05% Tween 20, 0.5 μM nonbiotinylated affinity ligand) and incubated at room temperature with shaking for 30 minutes. The kinase concentration in the eluates was measured by qPCR.

In assay [2] the target is T2, EGFR (WT) (Homo sapiens, UniProt P00533).
T2 construct: The EGFR constructs span amino acids R669 to V1011 of the EGFR protein; T7 phage display fusion (kinase-tagged T7 phage) or DNA tag for qPCR; made in house; host or cells: E. coli (BL21-derived) infected with T7 phage for most assays; remaining kinases in HEK-293
T2 sequence (P00533 669-1011): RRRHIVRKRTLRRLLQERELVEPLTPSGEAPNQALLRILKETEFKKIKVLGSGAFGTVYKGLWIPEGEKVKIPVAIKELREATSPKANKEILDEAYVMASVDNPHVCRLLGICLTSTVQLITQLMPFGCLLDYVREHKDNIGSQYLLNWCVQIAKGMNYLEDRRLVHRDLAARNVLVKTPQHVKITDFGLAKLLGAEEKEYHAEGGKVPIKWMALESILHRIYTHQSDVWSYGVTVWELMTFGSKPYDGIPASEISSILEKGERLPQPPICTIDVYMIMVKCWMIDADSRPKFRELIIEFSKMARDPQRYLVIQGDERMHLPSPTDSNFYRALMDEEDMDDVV
In words: In vitro kinase binding assay (phage/DNA-tagged kinase, affinity beads, qPCR), wild-type EGFR. On the procedure:
as §1
(Quantitative PCR measures a nucleic acid by following its amplification.)

Where [3] appears, read: mutant EGFR (T790M, L858R) construct R669 to V1011, 11-point 3-fold dilution series, 1 hour at room temperature, read-out: EGFR (L858R, T790M) Kd.
Where [4] appears, read: wild-type EGFR construct R669 to V1011, 11-point 3-fold dilution series, 1 hour at room temperature, read-out: EGFR (WT) Kd.

Structures are written as SMILES. Where two headings read alike, the source gives them in different places. Some results are limits rather than exact numbers.

Consider `C=CC(=O)N[C@@H]1CN(c2nc(Nc3cn(CCCNC(=O)CN4CCN(CC(=O)O)CCN(CC(=O)O)CCN(CC(=O)O)CC4)nc3OC)c3ncn(C)c3n2)C[C@H]1F` [Compound 001, 2-[4,7-bis(carboxymethyl)-10-[2-[3-[4-[[2-[(3R,4R)-3-fluoro-4-(prop-2-enoylamino)pyrrolidin-1-yl]-9-methyl-purin-6-yl]amino]-3-methoxy-pyrazol-1-yl]propylamino]-2-oxo-ethyl]-1,4,7,10-tetrazacyclododec-1-yl]acetic acid], for which the Kd (in general, the free concentration of one partner at which half of the binding sites on the other are occupied at equilibrium, for simple one-to-one binding) was less than 1 nM in assay [1] (setting [3]) and 2 to 100 nM in assay [2] (setting [4]). Moreover, the “Binding Affinity ratio of WT/DM” value in assay [1] is on record as “A (4 < A ≤ 25)”.

Turning to `C=CC(=O)N[C@@H]1CN(c2nc(Nc3cn(CCCNC(=O)CN4CCN5CCN6CCN(CC4)CC(=O)[O][Lu]([O]C(=O)C5)[O]C(=O)C6)nc3OC)c3ncn(C)c3n2)C[C@H]1F` [Compound 001-Lu, N-[(3R,4R)-4-fluoro-1-[6-[[3-methoxy-1-[3-[[2-(3,16,19-trioxo-2,17,18-trioxa-5,8,11,14-tetraza-1λ3-lutetatricyclo[9.6.3.25,14]docosan-8-yl)acetyl]amino]propyl]pyrazol-4-yl]amino]-9-methyl-purin-2-yl]pyrrolidin-3-yl]prop-2-enamide], in assay [1], the Kd was less than 1 nM and the “Binding Affinity ratio of WT/DM” value is reported as “A (4 < A ≤ 25)”. This compound also had a Kd in assay [2] of 2 to 100 nM.

With `C=CC(=O)N[C@@H]1CN(c2nc(Nc3cn(CCCCCNC(=O)CN4CCN(CC(=O)O)CCN(CC(=O)O)CCN(CC(=O)O)CC4)nc3OC)c3ncn(C)c3n2)C[C@H]1F` [Compound 002, 2-[4,7-bis(carboxymethyl)-10-[2-[5-[4-[[2-[(3R,4R)-3-fluoro-4-(prop-2-enoylamino)pyrrolidin-1-yl]-9-methyl-purin-6-yl]amino]-3-methoxy-pyrazol-1-yl]pentylamino]-2-oxo-ethyl]-1,4,7,10-tetrazacyclododec-1-yl]acetic acid], the Kd was less than 1 nM in assay [1] (setting [3]) and 2 to 100 nM in assay [2] (setting [4]).

As for `C=CC(=O)N[C@@H]1CN(c2nc(Nc3cn(CCCCCNC(=O)CN4CCN5CCN6CCN(CC4)CC(=O)[O][Lu]([O]C(=O)C5)[O]C(=O)C6)nc3OC)c3ncn(C)c3n2)C[C@H]1F` [Compound 002-Lu, N-[(3R,4R)-4-fluoro-1-[6-[[3-methoxy-1-[5-[[2-(3,16,19-trioxo-2,17,18-trioxa-5,8,11,14-tetraza-1λ3-lutetatricyclo[9.6.3.25,14]docosan-8-yl)acetyl]amino]pentyl]pyrazol-4-yl]amino]-9-methyl-purin-2-yl]pyrrolidin-3-yl]prop-2-enamide], the Kd in assay [1] is less than 1 nM; in assay [2], 2 to 100 nM. Also, the “Binding Affinity ratio of WT/DM” value in assay [1] is recorded as “A (4 < A ≤ 25)”.

Take `C=CC(=O)N[C@@H]1CN(c2nc(Nc3cn(CCCCCCCNC(=O)CN4CCN(CC(=O)O)CCN(CC(=O)O)CCN(CC(=O)O)CC4)nc3OC)c3ncn(C)c3n2)C[C@H]1F` [Compound 003, 2-[4,7-bis(carboxymethyl)-10-[2-[7-[4-[[2-[(3R,4R)-3-fluoro-4-(prop-2-enoylamino)pyrrolidin-1-yl]-9-methyl-purin-6-yl]amino]-3-methoxy-pyrazol-1-yl]heptylamino]-2-oxo-ethyl]-1,4,7,10-tetrazacyclododec-1-yl]acetic acid]: the Kd was less than 1 nM in assay [1] (setting [3]) and 2 to 100 nM in assay [2] (setting [4]). Moreover, the “Binding Affinity ratio of WT/DM” value in assay [1] is “A (4 < A ≤ 25)”.

As for `C=CC(=O)N[C@@H]1CN(c2nc(Nc3cn(CCCCCCCNC(=O)CN4CCN5CCN6CCN(CC4)CC(=O)[O][Lu]([O]C(=O)C5)[O]C(=O)C6)nc3OC)c3ncn(C)c3n2)C[C@H]1F` [Compound 003-Lu, N-[(3R,4R)-4-fluoro-1-[6-[[3-methoxy-1-[7-[[2-(3,16,19-trioxo-2,17,18-trioxa-5,8,11,14-tetraza-1λ3-lutetatricyclo[9.6.3.25,14]docosan-8-yl)acetyl]amino]heptyl]pyrazol-4-yl]amino]-9-methyl-purin-2-yl]pyrrolidin-3-yl]prop-2-enamide], in assay [1], the Kd is less than 1 nM and the “Binding Affinity ratio of WT/DM” value is listed as “A (4 < A ≤ 25)”. In assay [2], this compound showed a Kd of 2 to 100 nM.

Turning to `C=CC(=O)N[C@@H]1CN(c2nc(Nc3cn(CCCCCNC(=O)CN4CCN(CC(=O)O)CCN(CC(=O)O)CCN(CC(=O)O)CC4)nc3OC)c3ncn(C(C)(C)C)c3n2)C[C@H]1F` [Compound 004, 2-[4-[2-[5-[4-[[9-tert-butyl-2-[(3R,4R)-3-fluoro-4-(prop-2-enoylamino)pyrrolidin-1-yl]purin-6-yl]amino]-3-methoxy-pyrazol-1-yl]pentylamino]-2-oxo-ethyl]-7,10-bis(carboxymethyl)-1,4,7,10-tetrazacyclododec-1-yl]acetic acid], the values for the Kd in assay [1] (setting [3]) and in assay [2] (setting [4]) were 1 to 25 nM and 100 to 1000 nM, respectively. The “Binding Affinity ratio of WT/DM” value in assay [1] is recorded as “B (25 < B ≤ 100)”.

Consider `C=CC(=O)N[C@@H]1CN(c2nc(Nc3cn(CCCCCNC(=O)CN4CCN5CCN6CCN(CC4)CC(=O)[O][Lu]([O]C(=O)C5)[O]C(=O)C6)nc3OC)c3ncn(C(C)(C)C)c3n2)C[C@H]1F` [Compound 004-Lu, N-[(3R,4R)-1-[9-tert-butyl-6-[[3-methoxy-1-[5-[[2-(3,16,19-trioxo-2,17,18-trioxa-5,8,11,14-tetraza-1λ3-lutetatricyclo[9.6.3.25,14]docosan-8-yl)acetyl]amino]pentyl]pyrazol-4yl]amino]purin-2-yl]-4-fluoro-pyrrolidin-3-yl]prop-2-enamide], for which, in assay [1], the Kd was less than 1 nM and the “Binding Affinity ratio of WT/DM” value is “B (25 < B ≤ 100)”. Moreover, in assay [2], the Kd was 2 to 100 nM.

On to `C=CC(=O)N[C@@H]1CN(c2nc(Nc3cn(CCCCCNC(=O)CN4CCN(CC(=O)O)CCN(CC(=O)O)CCN(CC(=O)O)CC4)nc3CC)c3ncn(C(C)(C)C)c3n2)C[C@H]1F` [Compound 005, 2-[4-[2-[5-[4-[[9-tert-butyl-2-[(3R,4R)-3-fluoro-4-(prop-2-enoylamino)pyrrolidin-1-yl]purin-6-yl]amino]-3-ethyl-pyrazol-1-yl]pentylamino]-2-oxo-ethyl]-7,10-bis(carboxymethyl)-1,4,7,10-tetrazacyclododec-1-yl]acetic acid], for which the Kd in assay [1] (setting [3]) lay in the range of 1 to 25 nM; in assay [2] (setting [4]), 1000 to 2500 nM. Also, in assay [1], the “Binding Affinity ratio of WT/DM” value is “C (100 < C ≤ 1000)”.

`C=CC(=O)N[C@@H]1CN(c2nc(Nc3cn(CCCCCNC(=O)CN4CCN5CCN6CCN(CC4)CC(=O)[O][Lu]([O]C(=O)C5)[O]C(=O)C6)nc3CC)c3ncn(C(C)(C)C)c3n2)C[C@H]1F` [Compound 005-Lu, N-[(3R,4R)-1-[9-tert-butyl-6-[[3-ethyl-1-[5-[[2-(3,16,19-trioxo-2,17,18-trioxa-5,8,11,14-tetraza-1λ3-lutetatricyclo[9.6.3.25,14]docosan-8-yl)acetyl]amino]pentyl]pyrazol-4-yl]amino]purin-2-yl]-4-fluoro-pyrrolidin-3-yl]prop-2-enamide]: in assay [1], the Kd was 1 to 25 nM and the “Binding Affinity ratio of WT/DM” value is “C (100 < C ≤ 1000)”. This compound yielded a Kd in assay [2] of 1000 to 2500 nM.

On to `C=CC(=O)N[C@@H]1CN(c2nc(Nc3cn(CCCCCNC(=O)CN4C[C@H](CC)N(CC(=O)O)C[C@H](CC)N(CC(=O)O)C[C@H](CC)N(CC(=O)O)C[C@@H]4CC)nc3CC)c3ncn(C(C)(C)C)c3n2)C[C@H]1F` [Compound 006, 2,2′,2″-((2S,5S,8S,11S)-10-(2-((5-(4-((2-((3R,4R)-3-acrylamido-4-fluoropyrrolidin-1-yl)-9-(tert-butyl)-9H-purin-6-yl)amino)-3-ethyl-1H-pyrazol-1-yl)pentyl)amino)-2-oxoethyl)-2,5,8,11-tetraethyl-1,4,7,10-tetraazacyclododecane-1,4,7-triyl)triacetic acid], for which the equilibrium dissociation constant (Kd) in assay [1] (setting [3]) is 1 to 25 nM; in assay [2] (setting [4]), 1000 to 2500 nM. In assay [1], the “Binding Affinity ratio of WT/DM” value is on record as “B (25 < B ≤ 100)”.

For `C=CC(=O)N1C[C@H](COc2nc(Nc3cnn(CCCCCNC(=O)CN4CCN(CC(=O)O)CCN(CC(=O)O)CCN(CC(=O)O)CC4)c3)nc3[nH]cc(Cl)c23)[C@@H](OC)C1` [Compound 007, 2,2′,2″-(10-(2-((5-(4-((4-(((3R,4R)-1-acryloyl-4-methoxypyrrolidin-3yl)methoxy)-5-chloro-7H-pyrrolo[2,3-d]pyrimidin-2-yl)amino)-1H-pyrazol-1-yl)pentyl)amino)-2-oxoethyl)-1,4,7,10-tetraazacyclododecane-1,4,7-triyl)triacetic acid], the Kd was in the range of 1 to 25 nM in assay [1] (setting [3]) and 100 to 1000 nM in assay [2] (setting [4]). Also, the “Binding Affinity ratio of WT/DM” value in assay [1] is listed as “C (100 < C ≤ 1000)”.
